Data set [1] can be described thus: Solution stability of DAG sample solution (HPLC-ELSD). The format is physicochemical. The conditions noted are these: 8 mg/mL in acetonitrile/water (85:15). How it is done: The test sample solutions (nominal 8 mg/mL) are prepared as follows. The sample preparation for DAG drug substance or API can be as follows. Accurately weigh, in duplicate, about 80 mg of DAG API sample into clean 10 mL volumetric flasks. Dissolve DAG API sample in approximately 5 mL of diluent, diluted to volume with diluent, and mix. The sample preparation for DAG drug product (lyophilized powder, 40 mg/vial) can be as follows: Clean and remove the closure of the vial. Reconstitute the lyophilized vial with 5.0 mL diluent to yield an 8 mg/mL solution. Prepare samples in duplicate (using 2 vials). The sample solutions can be stored up to 48 hrs at 2-8° C. and 52 hrs at ambient laboratory conditions.
With respect to solution stability, the recovery of the aged solutions should be within 85%-115% of the initial assay. […]
The experimental approach for determining solution stability was as follows: For a standard solution, a dulcitol standard solution was prepared at 1.0% of DAG nominal conc. in one replicate and placed the solution under ambient laboratory conditions and refrigerated conditions (2-8° C.), respectively, using 1% Linearity standard solutions). […] For time points of less than 24 hours, solution stability is evaluated against fresh standards. The recovery of the aged solutions is evaluated. […] For time points of less than 24 hours, solution stability is evaluated against fresh standards.

A short description of data set [2]: Solution stability of dulcitol standard solution (HPLC-ELSD). The class given is physicochemical. The conditions noted are these: for Assay / Concentration: standard solution. How it is done:
The standard solutions can be stored up to 48 hrs at 2-8° C. and can be stored up to 52 hrs at ambient laboratory condition. The standard solutions can be used to generate a standard curve as described further below.
With respect to solution stability, the recovery of the aged solutions should be within 85%-115% of the initial assay. The absolute difference should be no more than 0.2% for an impurity at ≤1.0%. For an impurity >1.0%, the result of the aged solution should be within 80%-120% of the original. No new impurities at ≥1.0% should be observed.
The experimental approach for determining solution stability was as follows: For a standard solution, a dulcitol standard solution was prepared at 1.0% of DAG nominal conc. in one replicate and placed the solution under ambient laboratory conditions and refrigerated conditions (2-8° C.), respectively, using 1% Linearity standard solutions). The solution was reanalyzed at different time intervals, such as 2 hours, 4 hours, 8 hours, 24 hours and 48 hours. For time points of less than 24 hours, solution stability is evaluated against fresh standards. The recovery of the aged solutions is evaluated. For sample solutions, a sample solution at a specified DAG nominal concentration was prepared in one replicate and placed under laboratory conditions at ambient temperature or under refrigerated conditions (2-8° C.). The solution was reanalyzed at different time intervals, such as 2 hours, 4 hours, 8 hours, 24 hours and 48 hours. For time points of less than 24 hours, solution stability is evaluated against fresh standards.

Where [3] appears, read: ambient laboratory conditions, 0 h.
Setting [4] is: ambient laboratory conditions, 2 h.
Where [5] appears, read: ambient laboratory conditions, 4 h.
The mark [6] stands for this setting: ambient laboratory conditions, 8 h.
Where [7] appears, read: ambient laboratory conditions, 25 h.
[8] abbreviates: ambient laboratory conditions, 48 h.

Results on 2 molecules are retold here after patent US10591445B2, “Methods for analysis and resolution of preparations of dianhydrogalactitol and derivatives or analogs thereof” (Del Mar Pharmaceuticals (BC) Ltd., priority 2015, dated 2020).

A value given as a limit tells only on which side of the number the result lay.

With `OC(C1CO1)C(O)C1CO1` (stereo not shown) [DAG, 1,2:5,6 dianhydrogalactitol], the “Time the sample solutions can be stored” value in data set [1] (2-8° C.) is “up to 48 hrs”; in data set [1] (ambient laboratory conditions), at most 52 h.
For the molecule `OC[C@@H](O)[C@H](O)[C@H](O)[C@@H](O)CO` [Dulcitol, dulcitol], the figures for the “Time the standard solutions can be stored” value in data set [2] (2-8° C.) and in data set [2] (ambient laboratory condition) were “up to 48 hrs” and “up to 52 hrs”, respectively. For the same molecule, the Assay amounted to 109.233% in data set [2] (2-8° C., 0 h); 109.076% in data set [2] (2-8° C., 2 h); 109.164% in data set [2] (2-8° C., 4 h); 108.302% in data set [2] (2-8° C., 8 h); 109.056% in data set [2] (2-8° C., 25 h); 108.947% in data set [2] (2-8° C., 48 h). In addition, the Assay in data set [2] (setting [3]) was determined as 109.944%; in data set [2] (setting [4]), 109.778%; in data set [2] (setting [5]) it was 109.059%; in data set [2] (setting [6]), 108.590%; in data set [2] (setting [7]) it was 110.553%; in data set [2] (setting [8]) it was 108.986%. Also, the Concentration in data set [2] (2-8° C., 0 h) was 89.5 µg/mL; in data set [2] (2-8° C., 2 h), 89.4 µg/mL; in data set [2] (2-8° C., 4 h) it was 89.5 µg/mL; in data set [2] (2-8° C., 8 h) it was 88.8 µg/mL; in data set [2] (2-8° C., 25 h) it was 89.4 µg/mL; in data set [2] (2-8° C., 48 h) it was 89.3 µg/mL. The Concentration in data set [2] (setting [3]) is 89.8 µg/mL; in data set [2] (setting [4]), 89.7 µg/mL; in data set [2] (setting [5]), 89.1 µg/mL; in data set [2] (setting [6]), 88.7 µg/mL; in data set [2] (setting [7]), 90.3 µg/mL; in data set [2] (setting [8]), 89.1 µg/mL.
